ChEMBL document CHEMBL2331111, “Antioxidant and anti-inflammatory meroterpenoids from the brown alga Cystoseira usneoides” (J Nat Prod, 2013)
Active and inactive are the calls of the source. No cut-off for these calls is given here.

Assays:
[1] = Antioxidant activity assessed as ABTS free radical scavenging activity measured up to 6 mins by spectrophotometric analysis; type: functional
[2] = system: THP-1; test: Cytotoxicity against PMA-treated human THP1 cells assessed as cell viability at 8 to 10 uM after 48 hrs by SRB assay; type: cell-based; conditions: thp-1, 48 h
[3] = Ratio of trolox EC50 to compound EC50 for ABTS free radical scavenging activity
[4] = system: THP-1; test: Antiinflammatory activity in PMA-treated human THP1 cells assessed as inhibition of LPS-induced TNFalpha production at 2 uM incubated for 24 hrs prior to LPS challenge measured after 24 hrs by ELISA; type: functional, cell-based
[5] = system: THP-1; test: Antiinflammatory activity in PMA-treated human THP1 cells assessed as inhibition of LPS-induced TNFalpha production at 10 uM incubated for 24 hrs prior to LPS challenge measured after 24 hrs by ELISA relative to control; type: functional
[6] = system: THP-1; test: Antiinflammatory activity in PMA-treated human THP1 cells assessed as inhibition of LPS-induced TNFalpha production at 8 uM incubated for 24 hrs prior to LPS challenge measured after 24 hrs by ELISA relative to control; type: functional
[7] = system: THP-1; test: Antiinflammatory activity in PMA-treated human THP1 cells assessed as inhibition of LPS-induced TNFalpha production at 6 uM incubated for 24 hrs prior to LPS challenge measured after 24 hrs by ELISA relative to control; type: functional

Row | Compound | EC50 [1] [µM] | Activity [2] | Ratio EC50 [3] | inhibition [4] | inhibition at 10 µM [5] [%] | inhibition at 8 µM [6] [%] | inhibition at 6 µM [7] [%]
1 | COc1c(C)cc(O)cc1C/C=C(\C)CC(=O)/C=C(/C)CCCC(C)C(=O)/C=C/C(C)(C)O (centres undefined) | 26.3 | Non-toxic | 0.98 | inactive |  |  | 
2 | COc1c(C)cc(O)cc1C/C=C(\C)CC(=O)/C=C(\C)CCCC(C)C(=O)/C=C/C(C)(C)O (centres undefined) | 24.5 |  | 1.06 |  |  |  | 
3 | COc1c(C)cc(O)cc1/C=C/C(C)(O)CC(=O)/C=C(/C)CCCC(C)C(=O)/C=C/C(C)(C)O (centres undefined) [CYSTODIONE A] | 22.5 | Non-toxic | 1.15 |  |  | 33 | 
4 | COc1c(C)cc(O)cc1/C=C/C(C)(O)CC(=O)/C=C(\C)CCCC(C)C(=O)/C=C/C(C)(C)O (centres undefined) [CYSTODIONE B] | 24.4 | Non-toxic | 1.06 |  |  |  | 11
5 | COc1c(C)cc(O)cc1C/C=C(\C)CC(=O)/C=C(/C)CCCC(C)=O [CYSTOMEXICONE A] | 51.6 |  | 0.5 |  |  |  | 
6 | COc1c(C)cc(O)cc1C/C=C(\C)CC(=O)/C=C(\C)CCCC(C)=O [CYSTOMEXICONE B] | 33.3 |  | 0.78 |  |  |  | 
7 | Cc1c(C)c2c(c(C)c1O)CCC(C)(C(=O)O)O2 (centres undefined) [TROLOX] | 25.9 |  | 1 |  |  |  | 

Continued, in another order:

Row | EC50 [1] [µM] | Compound | Activity [2] | Ratio EC50 [3] | inhibition [4] | inhibition at 10 µM [5] [%] | inhibition at 8 µM [6] [%] | inhibition at 6 µM [7] [%]
8 | 33.1 | COc1c(C)cc(O)cc1C/C=C(\C)CC(=O)/C=C(\C)CCCC(C)(O)C(=O)/C=C/C(C)(C)O (centres undefined) | Non-toxic | 0.78 |  | 64 |  | 
9 | 55.9 | COc1c(C)cc(O)cc1/C=C/C(C)(O)CC(=O)/C=C(/C)CCCC(C)=O (centres undefined) [CYSTODIONE C] |  | 0.46 |  |  |  | 
10 | 44.7 | COc1c(C)cc(O)cc1/C=C/C(C)(O)CC(=O)/C=C(\C)CCCC(C)=O (centres undefined) [CYSTODIONE D] | Non-toxic | 0.58 |  | 11 |  | 
11 | 43.1 | COc1c(C)cc(O)cc1C/C=C(\C)CC(=O)/C=C(/C)CCCC(C)(O)C(=O)/C=C/C(C)(C)O (centres undefined) [USNEOIDONE Z] | Non-toxic | 0.6 |  | 73 |  | 
